This is an account of results in patent US6399659B2, “Hydrazine oxoacetamide derivative and insecticide” (Agro-Kanesho Co., Ltd., priority 1998, dated 2002).

What all share (type): in vivo
The test system of one data set is Spodoptera litura. In words: Effect on Spodoptera litura, sprayed Chinese cabbage leaves, death rate. The settings on record: third-instar larvae, 48 hours. The procedure: An emulsion was prepared from each of the present compounds listed below, in the same manner as that of Preparation Example 2. The obtained emulsion was diluted with water so that the concentration of the present compound would be 50 ppm, 5 ppm or 0.5 ppm to obtain diluted aqueous emulsions.
The diluted aqueous emulsions were sprayed on leaves of Chinese cabbages of a 3-4 leave stage. After drying with air, the leaves were placed in a plastic vessel having a size of 21 cm×13 cm×3 cm (depth). Ten third-instar larvae of Spodoptera litura were released in the vessel. The vessel was closed and placed in a room kept at a constant temperature of 26. 48 hours after, the numbers of surviving and dead ones were counted, and the death rate was calculated.

The subject of a further data set is Plutella xylostella. In words: Effect on Plutella xylostella, sprayed Chinese cabbage leaves, death rate. To be noted: third-instar larvae, 48 hours. The procedure: Emulsions of varied concentrations prepared in the same manner as that of the above Biological Test Example 1 were sprayed on leaves of Chinese cabbages of a 3-4 leave stage. After drying with air, the leaves were placed in a plastic vessel having a size of 9 cm (inside diameter)×6.5 cm (depth). Ten third-instar larvae of Plutella xylostella were released in the vessel. The vessel was closed and placed in a room kept at a constant temperature of 26. 48 hours after, the numbers of surviving and dead ones were counted, and the death rate was calculated. The results are shown in following Table 7 together with those obtained with comparative compounds.

The test system of another data set is Mamestra brassicae. The experiment in a line: Effect on Mamestra brassicae, insecticidal activity as in Biological Test Example 1.
The nature of data set [1]: Peroral acute toxicity for mouse. The settings on record: 300 mg/kg peroral, male ICR mice, 7 days observation. The procedure: Each of the present compounds was suspended in a 0.5% aqueous carboxymethylcellulose solution to obtain a suspension of a predetermined concentration. Male SIc:ICR mice (SPF) of 6 weeks old (body weight: 29.5 to 34.4 g) were fasted for 3 hours. 1 ml, per 100 g of the body weight, of the suspension was forcibly fed into the stomach of each mouse. Then, a food and water were given to the mice and they were bred in a cage. The observation period after the administration was 7 days. During that period, the life and death, general conditions and change in body weight of the mice were observed. Thereafter, pathologico-anatomic experiments were carried out (two mice in each group).

Take “4-[(4-chlorophenyl)-(ethylaminoxalyl-hydrazono)-methyl]phenyl trifuoromethanesulfonate [Compound 1-5]”: the death rate stood at 100% with Spodoptera litura (0.5 ppm); 100% with Spodoptera litura (5 ppm); 100% in the data set with Spodoptera litura (50 ppm); 0 with Plutella xylostella (0.5 ppm); 100 in the data set on Plutella xylostella (5 ppm); 100 in the data set with Plutella xylostella (50 ppm). Also, the insecticidal activity (death rate) in the data set on Mamestra brassicae (1.25 ppm) was 89%; in the data set on Mamestra brassicae (2.5 ppm), 100%; with Mamestra brassicae (50 ppm), 100%. The “life and death, general conditions” value in data set [1] was “Neither death nor abnormality of the general conditions was recognized”.
For `COC(=O)C(=O)N/N=C(/c1ccc(Cl)cc1)c1ccc(OS(C)(=O)=O)cc1` [Comparative compound C, reference compound], the death rate with Spodoptera litura (5 ppm) was 0%; in the data set on Spodoptera litura (50 ppm), 100%.
With `CNC(=O)C(=O)NN=C(c1ccc(Cl)cc1)c1ccc(OS(=O)(=O)C(F)(F)F)cc1` [Compound 1-3, 4-[(4-chlorophenyl)-(methylaminoxalyl-hydrazono)-methyl]-phenyl trifluoromethanesulfonate], the death rate worked out at 50% in the data set on Spodoptera litura (0.5 ppm); 100% with Spodoptera litura (5 ppm); 100% in the data set with Spodoptera litura (50 ppm); 0 with Plutella xylostella (0.5 ppm); 100 in the data set on Plutella xylostella (5 ppm); 100 in the data set on Plutella xylostella (50 ppm). The insecticidal activity (death rate) with Mamestra brassicae (1.25 ppm) turned out to be 67%; with Mamestra brassicae (2.5 ppm) it was 89%; in the data set with Mamestra brassicae (50 ppm), 100%.
Regarding `CCCNC(=O)C(=O)NN=C(c1ccc(Cl)cc1)c1ccc(OS(=O)(=O)C(F)(F)F)cc1` [Compound 1-7], the values for the death rate in the data set with Spodoptera litura (0.5 ppm), in the data set on Spodoptera litura (5 ppm) and in the data set on Spodoptera litura (50 ppm) were 70%, 100% and 100%, respectively. Moreover, the insecticidal activity (death rate) in the data set on Mamestra brassicae (1.25 ppm) was 50%; in the data set with Mamestra brassicae (2.5 ppm) it was 70%; in the data set with Mamestra brassicae (50 ppm) it was 100%.
`C=CCNC(=O)C(=O)NN=C(c1ccc(Cl)cc1)c1ccc(OS(=O)(=O)C(F)(F)F)cc1` [Compound 1-27]: the death rate worked out at 70% in the data set with Spodoptera litura (0.5 ppm), 100% with Spodoptera litura (5 ppm) and 100% with Spodoptera litura (50 ppm). The insecticidal activity (death rate) in the data set with Mamestra brassicae (1.25 ppm) was 80%; in the data set with Mamestra brassicae (2.5 ppm), 100%; with Mamestra brassicae (50 ppm), 100%.
Regarding `C#CCNC(=O)C(=O)NN=C(c1ccc(Cl)cc1)c1ccc(OS(=O)(=O)C(F)(F)F)cc1` [Compound 1-37], the death rate in the data set on Spodoptera litura (0.5 ppm) was 60%; in the data set on Spodoptera litura (5 ppm) it was 100%; with Spodoptera litura (50 ppm), 100%. Besides, the insecticidal activity (death rate) came out at 70% with Mamestra brassicae (1.25 ppm), 100% in the data set on Mamestra brassicae (2.5 ppm) and 100% in the data set with Mamestra brassicae (50 ppm).
Consider `O=C(NN=C(c1ccc(Cl)cc1)c1ccc(OS(=O)(=O)C(F)(F)F)cc1)C(=O)NC1CC1` [Compound 1-43], for which the death rate with Spodoptera litura (0.5 ppm) was determined as 90%; with Spodoptera litura (5 ppm), 100%; with Spodoptera litura (50 ppm), 100%. Moreover, the insecticidal activity (death rate) in the data set with Mamestra brassicae (1.25 ppm) came to 33%; with Mamestra brassicae (2.5 ppm) it was 67%; with Mamestra brassicae (50 ppm), 100%.
`CN(C)C(=O)C(=O)N/N=C(/c1ccc(Cl)cc1)c1ccc(OS(=O)(=O)C(F)(F)F)cc1` [Compound 1-133]: the death rate was found to be 90% with Spodoptera litura (0.5 ppm), 100% in the data set on Spodoptera litura (5 ppm) and 100% with Spodoptera litura (50 ppm). In addition, the insecticidal activity (death rate) with Mamestra brassicae (1.25 ppm) stood at 44%; in the data set on Mamestra brassicae (2.5 ppm), 100%; with Mamestra brassicae (50 ppm) it was 100%.
Regarding `CNC(=O)C(=O)N(C)N=C(c1ccc(Cl)cc1)c1ccc(OS(=O)(=O)C(F)(F)F)cc1` [Compound 1-178], the figures for the death rate with Spodoptera litura (0.5 ppm), in the data set on Spodoptera litura (5 ppm) and in the data set on Spodoptera litura (50 ppm) were 30%, 100% and 100%, respectively.
Consider `CNC(=O)C(=O)NN=C(c1ccc(Br)cc1)c1ccc(OS(=O)(=O)C(F)(F)F)cc1` [Compound 1-515], for which the values for the death rate with Spodoptera litura (0.5 ppm), with Spodoptera litura (5 ppm) and in the data set on Spodoptera litura (50 ppm) were 75%, 100% and 100%, respectively. The insecticidal activity (death rate) with Mamestra brassicae (1.25 ppm) was determined as 60%; in the data set with Mamestra brassicae (2.5 ppm) it was 80%; with Mamestra brassicae (50 ppm), 100%.
Consider `CCNC(=O)C(=O)NN=C(c1ccc(Br)cc1)c1ccc(OS(=O)(=O)C(F)(F)F)cc1` [Compound 1-517], for which the death rate in the data set on Spodoptera litura (0.5 ppm) is 60%; with Spodoptera litura (5 ppm) it was 100%; in the data set on Spodoptera litura (50 ppm), 100%. For the same molecule, the insecticidal activity (death rate) in the data set with Mamestra brassicae (1.25 ppm), with Mamestra brassicae (2.5 ppm) and with Mamestra brassicae (50 ppm) was 100% in each case.
Take `O=C(NN=C(c1ccc(Br)cc1)c1ccc(OS(=O)(=O)C(F)(F)F)cc1)C(=O)NC1CC1` [Compound 1-555]: the death rate was 40% in the data set with Spodoptera litura (0.5 ppm), 100% with Spodoptera litura (5 ppm) and 100% in the data set on Spodoptera litura (50 ppm).
Take `CCNC(=O)C(=O)NN=C(c1ccc(Cl)cc1)c1ccc(CSC(F)(F)F)cc1` [Compound 2-6]: the death rate with Spodoptera litura (0.5 ppm) is 50%; in the data set with Spodoptera litura (5 ppm) it was 100%; in the data set with Spodoptera litura (50 ppm) it was 100%.
